Experiments:
[1] = Chemical stability assessment in PBS at 37.5° C. (HPLC); type: physicochemical; conditions: buffer, pH 6.2, read-out: Chemical stability at pH 6.2-7.2 (t1/2) (converted)
Procedure: (§1) Stability studies were carried out by dissolving 1-2 mg of compound in DMSO (1 mL) followed by addition of 0.4 mL of the resulting solution to stirred PBS solution (9.6 mL) at 37.5° C. A sample (ca. 0.5 mL) was immediately taken for HPLC analysis. Further samples were then taken for analysis at various timepoints thereafter. Half-lives were determined from the decrease in concentration of compound with respect to time.
as §1, with “performed” for “carried out”, “ml)” for “mL)”, “ml” for “mL”, “PBS” for “PBS solution”, “(˜0.5 ml)” for “(ca. 0.5 mL)”, “time-points” for “timepoints”

[2] = Solubility testing in PBS or 0.9% saline; type: physicochemical; conditions: result in words
Procedure: Solubility studies were performed by charging a vial with 5-10 mg of compound followed by the 40 addition of PBS solution or 0.9% saline to achieve a concentration of 100 mg/ml. If solubility was not observed the solution was diluted to concentrations of 50 mg/ml, 25 mg/ml and 4 mg/ml consecutively until complete solubility was observed.

pneumolysin [3] = target: T1, pneumolysin (Streptococcus pneumoniae serotype 2, UniProt Q04IN8); assay: Ex vivo meningitis assay: effect of pneumolysin on ciliary function of cultured ependymal cells; type: cell-based; conditions: rat ependymal cells; compound 1.56 μM; recorded over 30 min; FIG. 2
Source text: The ependymal ciliated cells line the cerebral ventricles of the brain and the central canal of the spinal cord and are covered with cilia responsible for the circulation of the cerebrospinal fluid (CSF) around the central nervous system. This layer acts as a selective brain barrier to and from the cerebrospinal fluid and plays a role in controlling the CSF volume. To study if the inhibitors prevent the damage caused by pneumolysin on the ependymal layer, a rat ex vivo model of meningitis was used. This model is based on culturing and differentiating ciliated ependymal cells from neonate rat brains, which recreate the in vivo situation, where cells lining the brain ventricles, are exposed to S. pneumoniae and its toxic products.
Ependymal cell cultures were prepared by the method previously described [Microb. Pathog. (1999) 27 303-309]. Tissue culture trays were coated with bovine fibronectin and incubated at 37° C. in 5% (v/v) CO2 for 2 h before use. […]
After approximately two weeks, the cells were fully ciliated and ready for experiments. […] Beating cilia were recorded before and after exposure over 30 min, with a digital high-speed video camera at a rate of 500 frames/s. The recorded video sequences were played back at reduced frame rates and the ciliary beat frequency (CBF) was determined by the following equation: […]

pneumolysin [4] = target: T1, pneumolysin; assay: Inhibition of pneumolysin-induced lactate dehydrogenase (LDH) release from A549 human lung epithelial cells; type: cell-based
Procedure: Pneumolysin induces the release of lactate dehydrogenase (LDH) from human monocytes and lung epithelial cells: a phenomenon that is indicative of plasma membrane damage or rupture [Infect. Immun. (2002) 70 1017-1022].
Human lung epithelial cells (A549) were seeded in flat-bottomed 96-well tissue culture plates and grown in RPMI 1640 medium supplemented with Glutamine, at 37° C., 5% CO2, for 24 h.
Before use, the cells were washed with PBS. Test compound dilutions were incubated with pneumolysin as described in Section A, then transferred to wells containing the human lung epithelial cells and the plates were incubated at 37° C., 5% CO2, for 30 min. The following controls were included on the plate (1) Negative controls, called low control (PBS only) to measure the natural release of LDH from the cells in culture, (2) positive controls (1% (v/v) Triton-X in PBS) to measure the maximum release of LDH from the cells (3) Pneumolysin solution only to measure pneumolysin-induced LDH release, (4) Test compound solution to assess the toxicity of the compound alone. […] Absorbance at 490 nm and 655 nm was then measured. The percentage of LDH release induced by pneumolysin in the presence and absence of test compounds was plotted against the Log of the concentration of the compound and the IC50 was determined, as described above in the inhibition of haemolysis assay, Section A.

pneumolysin [5] = target: T1, pneumolysin; assay: Inhibition of the haemolytic activity of pneumolysin (sheep erythrocytes); type: cell-based; conditions: pneumolysin at LD100, sheep erythrocytes, 37° C., read-out: IC50
Procedure: The basis of this assay is that when pneumolysin is added to red blood cells, it induces their lysis and leads to the release of haemoglobin. In the presence of an inhibitory compound, pneumolysin-induced lysis is abolished, the red blood cells pellet at the bottom of the microtitre plate well and the supernatant is clear. However, if the compound is not inhibitory, the red blood cells are lysed and haemoglobin is released into the supernatant.
Test compound solutions (typically at 5 mM in DMSO) were diluted 1:1 in 100% DMSO. The compounds were then two-fold serially diluted in 100% DMSO across 11 wells of 96-well round-bottomed microtitre plate. PBS was then added to all the wells to achieve a 1:10 dilution of the compound in PBS. Pneumolysin was then added at a concentration equal to its LD100. Plates were then incubated at 37° C. for 30-40 min. After the incubation period, an equal volume of 4% (v/v) sheep erythrocyte suspension was added to each well and the plates incubated again at 37° C., for at least 30 min. Controls with only erythrocytes in PBS (control for no lysis) or erythrocytes plus pneumolysin (control for lysis) were prepared following the same procedure. Following the incubation with the erythrocytes, the Absorbance at 595 nm of each well was measured and the data used to determine the IC50 for each test compound. The IC50 values were determined using non-linear regression curve fitting. For that, the Log of the concentrations of the test compound was plotted against the percentage inhibition, estimated from the A595 values, followed by fitting a Hill Slope to the data.

T1 sequence (Q04IN8 whole entry): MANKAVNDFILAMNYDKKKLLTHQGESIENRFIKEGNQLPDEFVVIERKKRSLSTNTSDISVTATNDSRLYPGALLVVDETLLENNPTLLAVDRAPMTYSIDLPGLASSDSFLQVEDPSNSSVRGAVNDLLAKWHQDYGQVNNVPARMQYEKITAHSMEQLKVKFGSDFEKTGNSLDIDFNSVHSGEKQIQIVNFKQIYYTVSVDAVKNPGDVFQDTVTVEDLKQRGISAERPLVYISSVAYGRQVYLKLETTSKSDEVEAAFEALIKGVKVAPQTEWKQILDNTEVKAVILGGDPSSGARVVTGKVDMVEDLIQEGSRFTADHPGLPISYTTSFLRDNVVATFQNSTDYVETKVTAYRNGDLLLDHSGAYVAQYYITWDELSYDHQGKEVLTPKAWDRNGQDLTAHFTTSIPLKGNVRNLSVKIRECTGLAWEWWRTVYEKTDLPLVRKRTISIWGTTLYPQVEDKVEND

For COc1ccc(-n2c(C(=O)N(C)C)c(O)c(O)c2C(=O)N(C)C)cc1 [UL1-005, 3,4-Dihydroxy-1-(4-methoxyphenyl)-N^2,N^2,N^5,N^5-tetramethyl-1H-pyrrole-2,5-dicarboxamide], the half-life [1] was less than 30 min, the “Solubility in 0.9% (w/v) saline, pH 6.5 or PBS pH 7.2” value [2] was “Not soluble” and the “Ciliary beating frequency (CBF) in the presence of pneumolysin” value (pneumolysin [3]) was “No significant loss of the CBF”. The IC50 (pneumolysin [4]) was less than 490 nM, the IC50 (pneumolysin [5]; Table 1) was 200 nM and the IC50 (pneumolysin [5]; Table 2) was 200 nM.

From patent publication US20160130224A1, “Novel Pyrrole Derivatives” (priority 2013, published 2016)
